According to patent US8012959B2, “Diaminopyrimidinecarboxamide derivative” (Astellas Pharma Inc., priority 2002, dated 2011):

What follows are compounds tested against T1, STAT 6 (Homo sapiens, UniProt P42226) (assay: STAT 6 tyrosine phosphorylation in IL-4-stimulated H292 cell (western blotting)). Settings: 1 μM compound, 10 ng/ml human IL-4, disappearance of the about 110 kDa band.
T1 construct: host or cells: H292
T1 sequence (P42226 1-847): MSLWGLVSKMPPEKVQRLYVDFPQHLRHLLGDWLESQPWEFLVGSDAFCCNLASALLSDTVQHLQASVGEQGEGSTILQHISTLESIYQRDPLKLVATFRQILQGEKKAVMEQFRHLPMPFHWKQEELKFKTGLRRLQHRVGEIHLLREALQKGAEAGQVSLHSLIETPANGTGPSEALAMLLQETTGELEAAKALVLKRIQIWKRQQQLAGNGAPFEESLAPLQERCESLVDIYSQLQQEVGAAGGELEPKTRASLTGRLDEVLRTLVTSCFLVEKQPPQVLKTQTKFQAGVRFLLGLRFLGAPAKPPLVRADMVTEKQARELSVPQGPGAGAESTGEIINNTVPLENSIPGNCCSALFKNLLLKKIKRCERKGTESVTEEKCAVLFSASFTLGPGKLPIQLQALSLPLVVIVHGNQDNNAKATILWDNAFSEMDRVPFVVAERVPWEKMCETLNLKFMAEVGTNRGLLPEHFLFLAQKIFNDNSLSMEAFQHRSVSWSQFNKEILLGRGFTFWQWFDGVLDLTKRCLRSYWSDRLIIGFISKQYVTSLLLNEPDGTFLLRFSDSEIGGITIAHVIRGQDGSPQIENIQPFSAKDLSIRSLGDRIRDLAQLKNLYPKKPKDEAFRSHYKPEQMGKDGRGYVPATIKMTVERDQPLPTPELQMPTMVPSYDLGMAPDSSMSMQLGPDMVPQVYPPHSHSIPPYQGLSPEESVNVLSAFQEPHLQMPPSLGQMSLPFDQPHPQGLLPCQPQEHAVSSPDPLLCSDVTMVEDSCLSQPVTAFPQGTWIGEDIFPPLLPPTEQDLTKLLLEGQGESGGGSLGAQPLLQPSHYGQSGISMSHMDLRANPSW
Format: cell-based
Experimental: Measurement of STAT 6 Tyrosine Phosphorylation
The H292 cell (ATCC) (5×10^5 cells/0.5 ml) was inoculated into a 12 well plate (IWAKI) and cultured overnight, and then stimulation with 10 ng/ml of human IL-4 (Genzyme techne) was carried out. In the case of the evaluation of compounds, compound dilutions were added to the wells 20 minutes before the IL-4 stimulation. Also, regarding the dilution of compounds, dilution was carried out using 10% FBS-containing RPMI 1640 such that the final concentration of DMSO in which each compound was dissolved became 0.1% or less. This was washed three times with ice-cooled physiological phosphate buffer 20 minutes after the IL-4 stimulation. After the washing, 100 μl/well of a cell lysis solution (TNE buffer: 10 mM Tris-HCl pH 7.8, 1% NP-40, 0.15 M NaCl, 1 mM EDTA, 10 μg/ml aprotinin, 1 mM NaF and 1 mM Na3VO4) was added. The cell lysate was recovered, and 15 μl thereof was subjected to western blotting after SDS electrophoresis using an anti-tyrosine phosphorylated STAT 6 antibody (Cell Signaling). Whether or not the tyrosine phosphorylation band of about 110 kDa is disappeared, which is IL-4 stimulation-dependently detected, was judged. Also, uniform transference of the STAT 6 protein was confirmed using the same transfer membrane by western blotting which used an anti-STAT 6 antibody (SantaCruz).

| inhibition of STAT 6 tyrosine phosphorylation | Structure (SMILES) |
| --- | --- |
| completely inhibited | NC(=O)c1cnc(Nc2ccc(N3CCOCC3)cc2)nc1NCc1ccccc1 [Example 3, 4-benzylamino-2-{[4-(morpholin-4-yl)phenyl]amino}pyrimidine-5-carboxamide] |
| completely inhibited | Cc1cccc(Nc2nc(NCCc3ccc(O)c(Cl)c3)ncc2C(N)=O)c1 [Production Example 99] |

| Structure (SMILES) | inhibition of STAT 6 tyrosine phosphorylation |
| --- | --- |
| COc1ccccc1CNc1nc(Nc2ccc(N3CCOCC3)cc2)ncc1C(N)=O [Example 35] | completely inhibited |
